Columns and labels:
Assay in all cases: relative viability (nuclei count vs DMSO), 5 days (fraction); higher = more cells survive
BI-D1870 + Pemetrexed = compound: CC(C)CCN1c2nc(Nc3cc(F)c(O)c(F)c3)ncc2N(C)C(=O)C1C [BI-D1870] + Nc1nc2[nH]cc(CCc3ccc(C(=O)N[C@@H](CCC(=O)O)C(=O)O)cc3)c2c(=O)[nH]1 [Pemetrexed] (partner 0.2 µM)
Summary of the method: (§1)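 For relative viability, nuclei counts in treated wells were divided by those in vehicle wells. Lung cancer cell lines had been pin-tool dosed in 1536-well plates the day after seeding and cultured for 5 days, then fixed and stained in one step (final 0.05% Triton X-100, 1% formaldehyde, 1 ug/ml Hoechst) and imaged at 4×. Doses were one drug alone or a fixed anchor-drug dose plus five library-drug doses (not always all listed) in √10 steps, and values are duplicate-plate medians.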

BI-D1870 + Olaparib = compound: CC(C)CCN1c2nc(Nc3cc(F)c(O)c(F)c3)ncc2N(C)C(=O)C1C [BI-D1870] + O=C(c1cc(Cc2n[nH]c(=O)c3ccccc23)ccc1F)N1CCN(C(=O)C2CC2)CC1 [Olaparib] (partner 8 µM)
Summary of the method: as §1

Zebularine + Pictilisib = compound: O=c1ncccn1[C@@H]1O[C@H](CO)[C@@H](O)[C@H]1O [Zebularine] + CS(=O)(=O)N1CCN(Cc2cc3nc(-c4cccc5[nH]ncc45)nc(N4CCOCC4)c3s2)CC1 [Pictilisib] (partner 1 µM)
Summary of the method: as §1

Zebularine + Vorinostat = compound: O=c1ncccn1[C@@H]1O[C@H](CO)[C@@H](O)[C@H]1O [Zebularine] + O=C(CCCCCCC(=O)Nc1ccccc1)NO [Vorinostat] (partner 1 µM)
Summary of the method: as §1

Row | Cell Line | relative viability (BI-D1870 + Pemetrexed; first compound 0.04 µM) | relative viability (BI-D1870 + Pemetrexed; first compound 0.1265 µM) | relative viability (BI-D1870 + Pemetrexed; first compound 0.4 µM) | relative viability (BI-D1870 + Pemetrexed; first compound 1.265 µM) | relative viability (BI-D1870 + Pemetrexed; first compound 4 µM) | relative viability (BI-D1870 + Olaparib; first compound 0.04 µM) | relative viability (BI-D1870 + Olaparib; first compound 0.1265 µM) | relative viability (BI-D1870 + Olaparib; first compound 0.4 µM) | relative viability (BI-D1870 + Olaparib; first compound 1.265 µM) | relative viability (BI-D1870 + Olaparib; first compound 4 µM) | relative viability (Zebularine + Pictilisib; first compound 1 µM) | relative viability (Zebularine + Pictilisib; first compound 3.162 µM) | relative viability (Zebularine + Pictilisib; first compound 10 µM) | relative viability (Zebularine + Pictilisib; first compound 31.62 µM) | relative viability (Zebularine + Pictilisib; first compound 100 µM) | relative viability (Zebularine + Vorinostat; first compound 1 µM) | relative viability (Zebularine + Vorinostat; first compound 3.162 µM) | relative viability (Zebularine + Vorinostat; first compound 10 µM) | relative viability (Zebularine + Vorinostat; first compound 31.62 µM) | relative viability (Zebularine + Vorinostat; first compound 100 µM)
1 | NCI-H2347 | 0.515 | 0.443 | 0.427 | 0.438 | 0.393 | 0.547 | 0.589 | 0.552 | 0.633 | 0.487 | 0.8 | 0.529 | 0.439 | 0.558 | 0.462 | 0.608 | 0.653 | 0.457 | 0.431 | 0.387
2 | NCI-H2405 | 1.2 | 1.01 | 1 | 1.04 | 0.796 | 0.874 | 0.826 | 0.89 | 0.802 | 0.814 | 0.476 | 0.474 | 0.399 | 0.387 | 0.409 | 1.2 | 0.981 | 0.894 | 1 | 0.826
3 | NCI-H3122 | 0.187 | 0.194 | 0.203 | 0.222 | 0.202 | 0.576 | 0.562 | 0.566 | 0.631 | 0.588 | 0.669 | 0.575 | 0.575 | 0.613 | 0.593 | 1.14 | 0.937 | 0.792 | 1.09 | 0.996
4 | PC-3 [JPC-3] | 1.1 | 1.1 | 1.01 | 0.806 | 0.479 | 1.25 | 1.08 | 1.08 | 0.966 | 0.831 | 0.745 | 0.612 | 0.538 | 0.738 | 0.478 | 1.01 | 0.874 | 0.785 | 0.737 | 0.658
5 | PC-14 | 0.124 | 0.129 | 0.141 | 0.133 | 0.124 | 0.364 | 0.251 | 0.273 | 0.197 | 0.138 | 0.767 | 0.574 | 0.151 | 0.111 | 0.0955 | 0.756 | 0.439 | 0.214 | 0.154 | 0.0885
6 | RERF-LC-KJ | 0.453 | 0.447 | 0.476 | 0.527 | 0.413 | 1.09 | 0.831 | 0.936 | 0.914 | 0.306 | 0.662 | 0.485 | 0.348 | 0.565 | 0.474 | 0.734 | 0.738 | 0.633 | 0.762 | 0.683
7 | SK-LU-1 | 1.1 | 0.918 | 1.01 | 0.868 | 0.366 | 0.497 | 0.377 | 0.41 | 0.427 | 0.35 | 0.63 | 0.495 | 0.393 | 0.501 | 0.31 | 0.891 | 0.725 | 0.557 | 0.555 | 0.487
8 | SK-MES-1 | 0.992 | 0.874 | 0.895 | 0.716 | 0.622 | 0.77 | 0.561 | 0.731 | 0.363 | 0.19 | 0.375 | 0.399 | 0.294 | 0.346 | 0.203 | 1.28 | 1.18 | 0.914 | 1.09 | 0.351
9 | SW 1573 | 0.855 | 0.775 | 0.826 | 0.845 | 0.35 | 0.602 | 0.415 | 0.432 | 0.419 | 0.191 | 0.576 | 0.505 | – | 0.471 | 0.377 | 0.964 | 0.689 | – | 0.772 | 0.521

— the supplement of paper PMC10307832
